Legend:
[1] = tested on: influenza viruses A (H1N1) isolates, H275Y on N1 NA protein; set-up: species or system influenza virus A (H1N1)
[2] = molecular target: NA of oseltamivir-resistant influenza viruses A (H1N1) (ORVs) with H275Y (Influenza A virus (H1N1), UniProt E3JK96); type: biochemical

Compound	susceptibility to oseltamivir (in words) [1]	sensitivity of ORVs to the drug (in words) [2]
CCOC(=O)C1=C[C@@H](OC(CC)CC)[C@H](NC(C)=O)[C@@H](N)C1 [Oseltamivir, oseltamivir]	resistant	
CC(=O)N[C@H]1[C@H]([C@H](O)[C@H](O)CO)OC(C(=O)O)=C[C@@H]1N=C(N)N [Zanamivir, zanamivir]		sensitive

Reference: paper PMC3086245 (Emerging Infectious Diseases, 2010)
